From PubChem BioAssay AID2060624 (Molecular Pharmacology Branch, DTP, NCI, 2025)
Values joined by “and” are separate entries in the source; they are usually repeats but may differ in a detail not shown here. Equal values may be shown once.

Tested on: 217524-143-R1-J4-PDC spheroids with HUVEC/MSC, viability
Experiment: Anticancer human tumor 217524-143-R1-J4-PDC patient-derived pancreatic carcinoma cell line growth inhibition [CLK]
Settings: for viability, T/C: stronger effect = lower value
Method in brief: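 Patient-derived tumor cells grown as complex spheroids with HUVEC endothelial cells and mesenchymal stem cells, treated with drug combinations. Concentrations descend in half-log steps from near clinical Cmax, or from 10 microM if Cmax unknown.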
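Note: spheroids exposed to agents for seven days before reading.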
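Throughout, for viability, T/C: 100% = DMSO vehicle control viability.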

SMILES: O=c1[nH]cc(F)c(=O)[nH]1 + CN1CCN(c2cc(C(=O)Nc3cc4cc(-c5cnn(C)c5)ccc4cn3)ccn2)CC1
- IC50 (curve of first compound, second compound 0.0316 µM): 505 nM
- IC50 (curve of first compound, second compound 0.1 µM): 196 nM
- IC50 (curve of first compound, second compound 0.316 µM): < 31.6 nM
- IC50 (curve of first compound, second compound 1 µM): < 31.6 nM
- IC50 (curve of first compound, second compound 3.16 µM): < 31.6 nM
- IC50 (curve of first compound, second compound 10 µM): < 31.6 nM
- viability, T/C (second compound 0.0316 µM, first compound 0.0316 µM): 78.1%
- viability, T/C (second compound 0.0316 µM, first compound 0.1 µM): 74.9%
- viability, T/C (second compound 0.0316 µM, first compound 0.316 µM): 46.5%
- viability, T/C (second compound 0.0316 µM, first compound 1 µM): 49.6%
- viability, T/C (second compound 0.0316 µM, first compound 3.16 µM): 30.2%
- viability, T/C (second compound 0.0316 µM, first compound 10 µM): 28.1%
- viability, T/C (second compound 0.1 µM, first compound 0.0316 µM): 59.5%
- viability, T/C (second compound 0.1 µM, first compound 0.1 µM): 57.5%
- viability, T/C (second compound 0.1 µM, first compound 0.316 µM): 45.2%
- viability, T/C (second compound 0.1 µM, first compound 1 µM): 32.4%
- viability, T/C (second compound 0.1 µM, first compound 3.16 µM): 29%
- viability, T/C (second compound 0.1 µM, first compound 10 µM): 21.7%
- viability, T/C (second compound 0.316 µM, first compound 0.0316 µM): 21.9%
- viability, T/C (second compound 0.316 µM, first compound 0.1 µM): 23.4%
- viability, T/C (second compound 0.316 µM, first compound 0.316 µM): 21.2%
- viability, T/C (second compound 0.316 µM, first compound 1 µM): 16.1%
- viability, T/C (second compound 0.316 µM, first compound 3.16 µM): 15.7%
- viability, T/C (second compound 0.316 µM, first compound 10 µM): 13.4%
- viability, T/C (second compound 1 µM, first compound 0.0316 µM): 1.26%
- viability, T/C (second compound 1 µM, first compound 0.1 µM): 1.5%
- viability, T/C (second compound 1 µM, first compound 0.316 µM): 1.42%
- viability, T/C (second compound 1 µM, first compound 1 µM): 1.31%
- viability, T/C (second compound 1 µM, first compound 3.16 µM): 1.3%
- viability, T/C (second compound 1 µM, first compound 10 µM): 1.65%
- viability, T/C (second compound 3.16 µM, first compound 0.0316 µM): 0.71%
- viability, T/C (second compound 3.16 µM, first compound 0.1 µM): 0.91%
- viability, T/C (second compound 3.16 µM, first compound 0.316 µM): 0.78%
- viability, T/C (second compound 3.16 µM, first compound 1 µM): 0.61%
- viability, T/C (second compound 3.16 µM, first compound 3.16 µM): 0.63%
- viability, T/C (second compound 3.16 µM, first compound 10 µM): 0.59%
- viability, T/C (second compound 10 µM, first compound 0.0316 µM): 0.15%
- viability, T/C (second compound 10 µM, first compound 0.1 µM): 0.14%
- viability, T/C (second compound 10 µM, first compound 0.316 µM): 0.15%
- viability, T/C (second compound 10 µM, first compound 1 µM): 0.13%
- viability, T/C (second compound 10 µM, first compound 3.16 µM): 0.18%
- viability, T/C (second compound 10 µM, first compound 10 µM): 0.19%

SMILES: CC(C)CC(NC(=O)C(Cc1ccccc1)NC(=O)c1cnccn1)B(O)O (centres undefined)
- viability, T/C (compound 0.000949 µM): 107% and 103%
- viability, T/C (compound 0.003 µM): 68% and 61.1%
- viability, T/C (compound 0.00949 µM): 27% and 19.8%
- viability, T/C (compound 0.03 µM): 10.3% and 6.71%
- viability, T/C (compound 0.0949 µM): 6.69% and 3.3%
- viability, T/C (compound 0.3 µM): 2.39% and 1.64%
- IC50 (curve of compound): 4.99 nM and 4.09 nM
